Results: patent publication US20250304549A1, “HYDROXYAMIDE DERIVATIVE AND USE THEREOF” (SICHUAN HUIYU PHARMACEUTICAL CO., LTD., priority 2022, published 2025)
Structures can show the parent of a compound that is named as a salt.

Legend:
DU145 cells = assay: In vitro cell inhibition assay - DU145 cell proliferation (CellTiter-Glo); format: cell-based
In short: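 DU145 cells were seeded at 1×10^3 per well, exposed next day to an 8-point, 5-fold compound dilution series in RPMI-640 with 10% FBS, and incubated 6 days at 37° C. Viable cells were measured by CellTiter-Glo luminescence, and IC50 was fitted from inhibition rates relative to no-inhibitor and no-cell controls.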

NCI-H526 cells = assay: In vitro cell inhibition assay - NCI-H526 cell proliferation (CellTiter-Glo); format: cell-based; details: Homo sapiens, NCI-H526, 120 h, H526 small cell lung cancer cell proliferation, 5 days
Description: 6. In Vitro Cell Inhibition Assay—NCI-H526 Cell Proliferation
The inhibitory effect of the compounds on cell proliferation was assessed by detecting the number of viable cells using CellTiter-Glo® reagent. NCI-H526 cells in the logarithmic growth phase were collected and inoculated into transparent bottom 96-well plates at a density 1×10^3 cells per well with 100 μL of medium, and incubated at 37° C., 5% CO2 overnight. The compounds were sequentially diluted in a 5-fold concentration gradient with DMSO to obtain 8 different concentrations. These were then diluted with RPMI-640 (containing 10% FBS) cell culture medium to obtain the compound working solution (2×), which was added to the cell supernatant at 100 μL per well. The incubation continued for 5 days at 37° C., 5% CO2. The plate was then removed and equilibrated at room temperature (25° C.) along with the CellTiter-Glo® mixing reagent for 10-30 minutes; 80 μL of the culture medium was carefully aspirated from each well, and 80 μL of CellTiter-Glo® reagent was added. The cells were thoroughly mixed with the CellTiter-Glo® mixing reagent using a microplate shaker for 2 min. and then incubated at room temperature for 10 min. The 96-well plate was subsequently placed on a multifunctional microplate reader to record the Luminescence values (RLU).
The inhibition rate was calculated using the following formula: […]
Note: ‘Negative’ refers to the group without inhibitors; ‘Blank’ refers to the group without cells.
The IC50 value was determined by fitting the inhibition rate by GraphPad Prism software.

NCI-H69 cells = assay: In vitro cell inhibition assay - NCI-H69 cell proliferation (CellTiter-Glo); format: cell-based
In short: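 CellTiter-Glo luminescence measured viability after a 7-day, 37° C. exposure of NCI-H69 cells (1×10^3/well) to an 8-point, 5-fold dilution series in RPMI-640/20% FBS. Inhibition was normalised to untreated and cell-free wells and IC50 derived by curve fitting.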

NCI-H1417 cells = assay: In vitro cell inhibition assay - H1417 cell proliferation (CellTiter-Glo); format: cell-based
In short: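 Cells exposed to 8 compound concentrations (5-fold dilutions) in BEGM with 10% FBS for 7 days at 37° C., 5% CO2. Viable cells measured by CellTiter-Glo luminescence; inhibition versus no-inhibitor and no-cell controls, IC50 fitted.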

pan-HDAC = assay: In vitro enzyme inhibition assay - HDAC (HDAC-Glo I/II), pan-HDAC; format: biochemical
In short: (§1)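 The compound, serially diluted 5-fold in DMSO across 8 concentrations starting from a 1 mM stock, was made up as 4× working solutions in HDAC buffer. It was then tested in the HDAC-Glo I/II system, and luminescence was recorded. IC50 values came from variable-slope four-parameter curves of inhibition rate.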

LSD1 = LSD1 (Homo sapiens (Human), UniProt O60341); assay: In vitro enzyme inhibition assay - LSD1 (HTRF); format: biochemical
HDAC8 = HDAC8 (Homo sapiens (Human), UniProt Q9BY41); assay: In vitro enzyme inhibition assay - HDAC (HDAC-Glo I/II), HDAC8; format: biochemical; details: read-out: HDAC IC50 (nM) HDAC 8
Sequence of HDAC8 (Q9BY41 whole entry): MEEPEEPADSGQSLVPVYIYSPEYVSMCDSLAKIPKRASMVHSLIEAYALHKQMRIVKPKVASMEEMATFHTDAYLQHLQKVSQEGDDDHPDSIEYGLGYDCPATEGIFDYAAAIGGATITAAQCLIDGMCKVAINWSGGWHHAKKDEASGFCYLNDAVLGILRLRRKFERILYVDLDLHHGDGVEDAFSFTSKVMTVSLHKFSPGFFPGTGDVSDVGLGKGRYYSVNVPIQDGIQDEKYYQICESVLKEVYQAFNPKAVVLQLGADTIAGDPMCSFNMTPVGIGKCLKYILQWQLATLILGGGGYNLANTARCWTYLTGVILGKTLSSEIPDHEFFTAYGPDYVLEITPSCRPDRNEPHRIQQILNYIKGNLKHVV
In short: as §1

[1] = Homo sapiens, DU-145, Du145 prostate cancer cell proliferation
[2] = Homo sapiens, NCI-H69, H69 small cell lung cancer cell proliferation
[3] = Homo sapiens, NCI-H1417, H1417 small cell lung cancer cell proliferation
[4] = Du145 prostate cancer cell proliferation
[5] = H69 small cell lung cancer cell proliferation
[6] = H1417 small cell lung cancer cell proliferation

SMILES | IC50 (DU145 cells; [1]) | IC50 (NCI-H526 cells) | IC50 (NCI-H69 cells; [2]) | IC50 (NCI-H1417 cells; [3]) | IC50 (pan-HDAC) | IC50 (LSD1) | IC50 (HDAC8) | IC50 (DU145 cells; [4]) | IC50 (NCI-H69 cells; [5]) | IC50 (NCI-H1417 cells; [6])
Cc1ccc(-c2cnc(N3CCC(NCc4cnc(/C=C/C(=O)NO)nc4)CC3)c(C#N)c2-c2ccc(C#N)c(F)c2)cc1O [Example 148, (E)-3-(5-(((1-(3-Cyano-4-(4-cyano-3-fluorophenyl)-5-(3-hydroxy-4-methylphenyl)pyridin-2-yl)piperidin-4-yl)amino)methyl)pyrimidin-2-yl)-N-hydroxyacrylamide formate] | 0.0218 µM | 0.00622 µM | 0.0131 µM | 0.00264 µM | – | – | – | – | – | –
COc1ccc(-c2cnc(N3CCCC(NCc4ccc(/C=C/C(=O)NO)cc4)CC3)c(C#N)c2-c2ccc(C#N)c(F)c2)cc1O (stereo not shown) [Example 149, (E)-3-(4-(((1-(3-Cyano-4-(4-cyano-3-fluorophenyl)-5-(3-hydroxy-4-methoxyphenyl)pyridin-2-yl)azepan-4-yl)amino)methyl)phenyl)-N-hydroxyacrylamide formate] | 0.0339 µM | 0.0145 µM | 0.0236 µM | 0.00208 µM | – | – | – | – | – | –
N#Cc1ccc(-c2c(-c3ccc(/C=C/C(=O)NO)c(O)c3)cnc(N3CCC(NCc4ccc(/C=C/C(=O)NO)cc4)CC3)c2C#N)cc1F [Example 90] | 0.0453 µM | 0.0346 µM | 0.00649 µM | 0.042 µM | – | – | – | – | – | –
COc1ccc(-c2cnc(N3CCC(NCCCc4ncc(C(=O)NO)s4)CC3)c(C#N)c2-c2ccc(C#N)c(F)c2)cc1O [Example 125, 2-(3-(3-Cyano-4-(4-cyano-3-fluorophenyl)-5-(3-hydroxy-4-methoxyphenyl)pyridin-2-yl)piperidin-4-yl)amino)propyl)-N-hydroxythiazole-5-carboxamide formate] | 3.04 µM | – | 1.95 µM | 0.012 µM | 226 nM | 0.00074 µM | 23.4 nM | – | – | –
COc1cc(-c2cnc(N3CCC(NCc4ccc(/C=C/C(=O)NO)cn4)CC3)c(C#N)c2-c2ccc(C#N)c(F)c2)ccc1O [Example 95, (E)-3-(6-((1-(3-Cyano-4-(4-cyano-3-fluorophenyl)-5-(4-hydroxy-3-methoxyphenyl)pyridin-2-yl)piperidin-4-yl)amino)methyl) pyridin-3-yl)-N-hydroxyacrylamide formate] | 0.628 µM | – | 0.304 µM | 0.335 µM | 49 nM | 0.0636 µM | 87.2 nM | – | – | –
COc1ccc(-c2cnc(N3CCC(NCCNc4ncc(C(=O)NO)cn4)CC3)c(C#N)c2-c2ccc(C#N)c(F)c2)cc1O [Example 115, 2-(2-(1-(3-Cyano-4-(4-cyano-3-fluorophenyl)-5-(3-hydroxy-4-methoxyphenyl)pyridin-2-yl)piperidin-4-yl)amino)ethyl) amino)-N-hydroxypyrimidine-5-carboxamide formate] | 6.34 µM | – | 3.34 µM | 0.00225 µM | 20.6 nM | 0.00016 µM | 37.1 nM | – | – | –
COc1ccc(-c2cnc(N3CCC(NCc4ccc(/C=C/C(=O)NO)cc4)CC3)c(F)c2-c2ccc(C#N)c(F)c2)cc1O [Example 76, (E)-3-(4-(((1-(4-(4-cyano-3-fluorophenyl)-3-fluoro-5-(3-hydroxy-4-methoxyphenyl)pyridin-2-yl)piperidin-4-yl)amino)methyl)phenyl)-N-hydroxyacrylamide formate] | 0.011 µM | 0.00827 µM | 0.00396 µM | 0.0117 µM | – | – | – | – | – | –
Cn1cnc2cc(-c3cnc(N4CCC(NCc5ccc(/C=C/C(=O)NO)cc5)CC4)c(C#N)c3-c3ccc(C#N)c(F)c3)ccc21 [Example 136, (E)-3-(4-(((1-(3-Cyano-4-(4-cyano-3-fluorophenyl)-5-(1-methyl-1H-benzo[d]imidazol-5-yl))pyridin-2-yl)piperidin-4-yl)amino)methyl) phenyl)-N-hydroxyacrylamide formate] | 0.364 µM | – | 0.0937 µM | 0.0291 µM | 10.4 nM | 0.0172 µM | 77.7 nM | – | – | –
N#Cc1ccc(-c2c(-c3ccc(OC(F)F)c(O)c3)cnc(N3CCC(NCc4cnc(/C=C/C(=O)NO)nc4)CC3)c2C#N)cc1F [Example 145, (E)-3-(5-(((1-(3-Cyano-4-(4-cyano-3-fluorophenyl)-5-(4-(difluoromethoxy)-3-hydroxyphenyl)pyridin-2-yl)piperidin-4-yl)amino)methyl)pyrimidin-2-yl)-N-hydroxyacrylamide formate] | 0.0378 µM | – | 0.0393 µM | 0.0186 µM | 5.23 nM | 0.00335 µM | 74.9 nM | – | – | –
COc1ccc(-c2ccc(C(=O)N3CC[C@H](NCc4ccc(/C=C/C(=O)NO)cc4)C3)cc2-c2ccc(C#N)c(F)c2)cc1O [Example 72, (S,E)-3-(4-(((1-(4″-cyano-3″-fluoro-3-hydroxy-4-methoxy-[1,1′:2′,1″-terphenyl]-4′-carbonylpyrrolidin-3-yl)amino)methyl)phenyl)-N-hydroxyacrylamide formate] | – | – | – | – | 110 nM | 0.00842 µM | 160 nM | 2.75 µM | 0.97 µM | 0.166 µM
COc1ccc(-c2cnc(N3CCC(NCc4ncc(/C=C/C(=O)NO)s4)CC3)c(C#N)c2-c2ccc(C#N)c(F)c2)cc1O [Example 151, (E)-3-(2-(((1-(3-Cyano-4-(4-cyano-3-fluorophenyl)-5-(3-hydroxy-4-methoxyphenyl)pyridin-2-yl)piperidin-4-yl)amino)methyl)thiazol-5-yl)-N-hydroxyacrylamide hydrochloride] | 0.308 µM | – | 0.189 µM | 0.0104 µM | 27.4 nM | 0.0027 µM | 618 nM | – | – | –
COc1ccc(-c2cnc(N3CCC(NC(=O)CCCCCCC(=O)NO)CC3)c(C#N)c2-c2ccc(C#N)c(F)c2)cc1O [Example 177, N^1-(1-(3-Cyano-4-(4-cyano-3-fluorophenyl)-5-(3-hydroxy-4-methoxyphenyl)pyridin-2-yl)piperidin-4-yl)-N^8-hydroxyoctanediamide formate] | 2.03 µM | – | 0.639 µM | 0.00074 µM | 40.2 nM | 0.963 µM | 581 nM | – | – | –
COc1cc(-c2cnc(N3CCC(NCc4cccc(/C=C/C(=O)NO)c4)CC3)c(C#N)c2-c2ccc(C#N)c(F)c2)ccc1O [Example 98, (E)-3-(3-((1-(3-Cyano-4-(4-cyano-3-fluorophenyl)-5-(4-hydroxy-3-methoxyphenyl)pyridin-2-yl)piperidin-4-yl)amino)methyl) phenyl)-N-hydroxyacrylamide formate] | 2.23 µM | – | 0.528 µM | 0.707 µM | 394 nM | 0.16 µM | 480 nM | – | – | –
COc1ccc(-c2ccc(CN3CC[C@H](NCc4ccc(/C=C/C(=O)NO)cc4)C3)cc2-c2ccc(C#N)c(F)c2)cc1O [Example 74, (S,E)-3-(4-(((1-((4″-cyano-3″-fluoro-3-hydroxy-4-methoxy-[1,1:2′,1″-terphenyl]-4′-yl)methyl)pyrrolidin-3-yl)amino)methyl)phenyl)-N-hydroxyacrylamide formate] | – | – | – | – | 23.1 nM | 0.00226 µM | 207 nM | 0.553 µM | 0.205 µM | 0.0401 µM
COc1cc(-c2cnc(N3CC4CC3CC4NCc3ccc(/C=C/C(=O)NO)cc3)c(C#N)c2-c2ccc(C#N)c(F)c2)ccc1O (stereo not shown) [Example 94, (E)-3-(4-(2-(3-Cyano-4-(4-cyano-3-fluorophenyl)-5-(4-hydroxy-3-methoxyphenyl)pyridin-2-yl)-2-azabicyclo[2.2.1]heptan-5-yl)amino)methyl) phenyl)-N-hydroxyacrylamide formate] | – | – | – | – | 110 nM | 0.173 µM | 256 nM | 0.495 µM | 0.19 µM | 0.161 µM
